A word on the IC50: it is the concentration that gives 50% inhibition.

The record followed here is ChEMBL document CHEMBL5360672, “Identification of Novel Dual-Target Estrogen Receptor α Degraders with Tubulin Inhibitory Activity for the Treatment of Endocrine-Resistant Breast Cancer” (J Med Chem, 2023).

The structures appear in SMILES notation. The source made the active and inactive calls. No cut-off for these calls is given here.

Data set [1] concerns T47D. Put plainly: Antiproliferative activity against ERalpha positive human T47D cells assessed as inhibition of cell proliferation incubated for 72 hrs by CCK8 assay. Type of data set: functional, cell-based.
The target in data set [2] is T1, Estrogen receptor (Homo sapiens) (UniProt P03372).
T1 sequence (whole entry): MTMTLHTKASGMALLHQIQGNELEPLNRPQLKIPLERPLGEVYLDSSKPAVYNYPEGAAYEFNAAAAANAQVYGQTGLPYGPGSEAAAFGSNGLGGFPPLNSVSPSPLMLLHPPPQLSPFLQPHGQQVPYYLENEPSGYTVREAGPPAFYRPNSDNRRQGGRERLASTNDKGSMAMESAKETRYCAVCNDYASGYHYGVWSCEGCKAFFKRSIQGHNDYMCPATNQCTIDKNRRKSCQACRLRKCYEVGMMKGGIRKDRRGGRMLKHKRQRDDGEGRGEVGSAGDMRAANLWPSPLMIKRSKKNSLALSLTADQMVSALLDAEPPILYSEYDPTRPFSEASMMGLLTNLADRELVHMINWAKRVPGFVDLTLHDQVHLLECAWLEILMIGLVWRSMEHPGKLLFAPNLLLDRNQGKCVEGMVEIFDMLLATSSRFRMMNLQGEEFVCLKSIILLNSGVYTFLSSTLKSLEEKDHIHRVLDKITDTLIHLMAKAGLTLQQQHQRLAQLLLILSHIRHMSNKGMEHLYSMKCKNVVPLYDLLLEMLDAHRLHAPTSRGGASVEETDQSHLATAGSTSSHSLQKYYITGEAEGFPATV
The data set can be described thus: Induction of ERalpha degradation in human MCF7 cells at 5 uM incubated for 24 hrs by Western blot analysis relative to SeCN-OBHSA derivatives. The format is cell-based. On the technique in general: In western blotting, separated proteins are transferred to a membrane and probed.

Data set [3] has as its system T47D. Put plainly: Antiproliferative activity against human T47D cells harboring ERalpha Y537S mutant assessed as inhibition of cell proliferation incubated for 72 hrs by CCK8 assay. The format is functional, cell-based. (Tetrazolium assays rely on reduction of a dye to a coloured formazan, in cell work by metabolically active cells.)
The nature of data set [4]: Cytotoxicity against human MCF-10A cells assessed as inhibition of cell proliferation incubated for 72 hrs by CCK8 assay. Type of data set: toxicity, cell-based.
Data set [5] in a line: Antiproliferative activity against human Tamoxifen-resistant LCC2 cells assessed as inhibition of cell proliferation incubated for 72 hrs by CCK8 assay. Type of data set: functional, cell-based.
Data set [6] is filed under the species Homo sapiens. The data set can be described thus: Selectivity ratio of relative binding affinity for human ERalpha to relative binding affinity to human ERbeta.
In data set [7] the target is Estrogen receptor beta (Homo sapiens) (UniProt Q92731). Put plainly: Binding affinity to human ERbeta assessed as relative binding affinity incubated under vibration for 1 min followed by 2 hrs incubation under dark condition by fluorescence polarization assay relative to estradiol. The conditions noted are these: time 121.0 min. In general terms: In fluorescence polarisation assays a small probe gives low polarisation when free and higher when bound to something large.

Data set [8] in a line: Selectivity index, ratio of IC50 for cytotoxicity against human MCF-10A cells to IC50 for antiproliferative activity against human MCF7 cells. Type of data set: toxicity, cell-based. The conditions noted are these: MCF-10A cells and MCF7 cells, read-out: Ratio IC50.
In data set [9] the test system is T47D. Put plainly: Antiproliferative activity against human T47D cells harboring ERalpha D538G mutant assessed as inhibition of cell proliferation incubated for 72 hrs by CCK8 assay. The format is functional, cell-based.
In data set [10] the target is T1, Estrogen receptor (Homo sapiens). Put plainly: Binding affinity to human ERalpha assessed as relative binding affinity incubated under vibration for 1 min followed by 2 hrs incubation under dark condition by fluorescence polarization assay relative to estradiol. The conditions noted are these: time 121.0 min.
Data set [11] deals with MCF7. Put plainly: Antiproliferative activity against ERalpha positive human MCF7 cells assessed as inhibition of cell proliferation incubated for 72 hrs by CCK8 assay. To be noted: MCF7, 72 h. Type of data set: functional, cell-based.

Sequence of Estrogen receptor beta (Homo sapiens) (Q92731 whole entry): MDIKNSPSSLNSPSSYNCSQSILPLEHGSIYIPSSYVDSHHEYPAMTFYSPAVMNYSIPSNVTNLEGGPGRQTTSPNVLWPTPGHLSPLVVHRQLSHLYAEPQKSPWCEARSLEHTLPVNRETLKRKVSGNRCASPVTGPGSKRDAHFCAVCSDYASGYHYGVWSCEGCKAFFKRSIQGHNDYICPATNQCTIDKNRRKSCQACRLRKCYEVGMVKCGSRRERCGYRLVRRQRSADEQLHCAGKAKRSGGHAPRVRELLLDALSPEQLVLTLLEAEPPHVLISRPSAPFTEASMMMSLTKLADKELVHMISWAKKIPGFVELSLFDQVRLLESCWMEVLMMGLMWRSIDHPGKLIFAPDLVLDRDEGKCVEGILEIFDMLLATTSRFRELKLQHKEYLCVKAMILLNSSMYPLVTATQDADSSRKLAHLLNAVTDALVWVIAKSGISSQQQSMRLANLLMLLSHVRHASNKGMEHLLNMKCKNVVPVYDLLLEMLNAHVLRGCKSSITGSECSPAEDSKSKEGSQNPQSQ

For `COc1ccc(N(CC(F)(F)F)S(=O)(=O)C2CC3OC2C(c2ccc(NC(=O)CCCCCCC[Se]C#N)cc2)=C3c2ccc(O)cc2)cc1` (stereo not given), the IC50 is 20.2 µM in data set [1]; 6.27 µM in data set [3]; 10.3 µM in data set [5]; 12.7 µM in data set [9]; 0.44 µM in [11]. For the same molecule, the outcome in data set [2] was Active. Also, the IC50 at 72 h in data set [4] was 38.2 µM. Further, the Selectivity ratio in data set [6] amounted to 8.44. Also, the RBA was determined as 0.09% in data set [7] and 0.76% in data set [10]. Besides, in data set [8], the selectivity ratio is 86.8.

Regarding `N#C[Se]CCCCCC(=O)Nc1ccc(C2=C(c3ccc(O)cc3)C3CC(S(=O)(=O)N(CC(F)(F)F)c4cccc(Cl)c4)C2O3)cc1` (stereo not given), the IC50 amounted to 4.26 µM in [1]; 3.76 µM in data set [3]; 3.96 µM in [5]; 3.42 µM in data set [9]; 1.09 µM in data set [11]. Moreover, the outcome in data set [2] was Active. The IC50 at 72 h in [4] was determined as 49.1 µM. Also, the Selectivity ratio in [6] came out at 73.3. In addition, the RBA is 0.06% in data set [7] and 4.4% in data set [10]. The selectivity ratio in data set [8] was 45.

With `CCN(c1ccc(OC)cc1)S(=O)(=O)C1CC2OC1C(c1ccc(NC(=O)CCCCC[Se]C#N)cc1)=C2c1ccc(O)cc1` (stereo not given), the IC50 in data set [1] was 6.66 µM; in [3] it was 4.92 µM; in [5] it was 5.8 µM; in data set [9], 4.76 µM; in [11], 0.33 µM. For the same molecule, the result in data set [2] was Active. The concentration for half-maximal inhibition (IC50) at 72 h in data set [4] was 37.9 µM. Besides, the Selectivity ratio in data set [6] was determined as 730. The RBA in [7] worked out at 0.01%; in [10], 7.3%. Further, in data set [8], the selectivity ratio was determined as 115.

Turning to `N#C[Se]CCCCCC(=O)Nc1ccc(C2=C(c3ccc(O)cc3)C3CC(S(=O)(=O)Oc4cccc(O)c4)C2O3)cc1` (stereo not given), the IC50 in [1] is over 31 µM; in data set [11], 1.29 µM. Further, in data set [4], the IC50 at 72 h is over 60 µM. Besides, in data set [6], the Selectivity ratio is 15.6. The values for the RBA in data set [7] and in data set [10] were 0.91% and 14.2%, respectively. Moreover, the selectivity ratio in data set [8] was over 46.5.

On to `Cc1ccc(OS(=O)(=O)C2CC3OC2C(c2ccc(NC(=O)CCCCC[Se]C#N)cc2)=C3c2ccc(O)cc2)cc1` (stereo not given), for which the half-maximal inhibitory concentration (IC50) in data set [1] is 3.13 µM; in [11] it was 2.75 µM. The IC50 at 72 h in data set [4] worked out at 41.1 µM. The Selectivity ratio in data set [6] amounted to 1.26. The figures for the RBA in [7] and in [10] were 2.63% and 3.31%, respectively. Further, the selectivity ratio in data set [8] worked out at 15.

On to `N#C[Se]CCCCCC(=O)Nc1ccc(C2=C(c3ccc(O)cc3)C3CC(S(=O)(=O)Oc4cccc(Br)c4)C2O3)cc1` (stereo not given), for which the IC50 amounted to 2.84 µM in data set [1] and 1.23 µM in data set [11]. Besides, in [4], the half-inhibitory concentration (IC50) at 72 h came to 22.7 µM. For the same molecule, the Selectivity ratio in data set [6] came out at 1.9. The values for the RBA in data set [7] and in data set [10] were 0.31% and 0.59%, respectively. The selectivity ratio in [8] was found to be 18.5.

Consider `COc1cccc(OS(=O)(=O)C2CC3OC2C(c2ccc(NC(=O)CCCCC[Se]C#N)cc2)=C3c2ccc(O)cc2)c1` (stereo not given), for which the half-maximal inhibitory concentration (IC50) came out at 3.21 µM in data set [1] and 2.49 µM in [11]. Further, the IC50 at 72 h in data set [4] came to 19.9 µM. For the same molecule, in [6], the Selectivity ratio came out at 34.7. In addition, the results for the RBA in data set [7] and in data set [10] were 0.35% and 12.1%, respectively. Moreover, the selectivity ratio in [8] amounted to 7.99.

In the case of `N#C[Se]CCCCCCCC(=O)Nc1ccc(C2=C(c3ccc(O)cc3)C3CC(S(=O)(=O)Oc4ccccc4)C2O3)cc1` (stereo not given), the results for the concentration for half-maximal inhibition (IC50) in data set [1] and in data set [11] were over 31 µM and 1.71 µM, respectively. The IC50 at 72 h in [4] amounted to 20.5 µM. In addition, the Selectivity ratio in data set [6] amounted to 0.34. For the same molecule, the values for the RBA in data set [7] and in data set [10] were 2.06% and 0.71%, respectively. Further, in data set [8], the selectivity ratio came to 12.

For `N#C[Se]CCCCCC(=O)Nc1ccc(C2=C(c3ccc(O)cc3)C3CC(S(=O)(=O)Oc4cccc(F)c4)C2O3)cc1` (stereo not given), the results for the IC50 in data set [1] and in data set [11] were 2.05 µM and 0.78 µM, respectively. Moreover, the 50% inhibitory concentration (IC50) at 72 h in data set [4] worked out at 17.5 µM. In addition, the Selectivity ratio in [6] came out at 6.25. The RBA in data set [7] stood at 0.53%; in [10], 3.31%. In addition, the selectivity ratio in data set [8] was 22.4.
